In patent US20150001139A1, “REAL-TIME INTEGRITY MONITORING OF SEPARATION MEMBRANES” (THE REGENTS OF THE UNIVERSITY OF CALIFORNIA, priority 2013, published 2015):
Converted amounts (≈) assume the structure as drawn.

What was measured:
[1] = cited from earlier work
[2] = Preliminary evaluation of uranine fluorescence stability (pH, chlorine); type: physicochemical
Description: Fluorescent molecular markers are subjected to screening criteria, including low toxicity, low background fluorescence in water, economic feasibility for long term use, and commercial availability. Screening criteria are also based on experiments, including stability with light exposure, strong fluorescent intensity, stability under various pH conditions, and stability under chlorine exposure.
Uranine stock solutions were prepared from reagent-grade uranine powder (Fisher Scientific, Pittsburgh, Pa.) dissolved in ultra-pure deionized water from a Milli-Q water purification system (Millipore Corp., San Jose, Calif.). RO desalting runs were conducted using low salinity potable tap water (average reported total dissolved solids (TDS) of about 265 mg/l, TOC of about 1.7 mg/l, and total hardness of about 113 mg/l as CaCO3).

Molecule | Solubility in Water [1] | chlorine tolerance of fluorescence ([2]; about 1-4 ppm of free chlorine) | stability of fluorescence intensity with pH ([2]; typical RO process pH operating range, pH of about 6-8)
O=S(=O)([O-])c1cc(O)c2ccc3c(S(=O)(=O)[O-])cc(S(=O)(=O)[O-])c4ccc1c2c34.[Na+].[Na+].[Na+] [Pyranine] | 178 mg/mL |  | 
Erythrosine | 20 mg/mL |  | 
Sodium naphtionate | 240 mg/mL |  | 
Cc1ccc(N2C(=O)c3cccc4c(N)c(S(=O)(=O)[O-])cc(c34)C2=O)cc1.[Na+] [Lissamine FF] | 40 mg/mL |  | 
Lanaperl fast yellow | very soluble |  | 
CCN(CC)c1ccc2c(-c3ccc(S(=O)(=O)O)cc3S(=O)(=O)[O-])c3ccc(=[N+](CC)CC)cc-3oc2c1 [Sulforhodamine B] | 10 mg/mL (≈ 17.9 mM) |  | 
O=C(O)c1c(Cl)c(Cl)c(Cl)c(Cl)c1-c1c2cc(I)c(=O)c(I)c-2oc2c(I)c(O)c(I)cc12 [Bengal rose] | 100 mg/mL (≈ 103 mM) |  | 
Amidorhodamine G | very soluble |  | 
O=C([O-])c1ccccc1-c1c2ccc(=O)cc-2oc2cc([O-])ccc12.[Na+].[Na+] [Uranine] |  | high level of chlorine tolerance | stable fluorescence intensity
O=C(O)c1ccccc1-c1c2cc([N+](=O)[O-])c(=O)c(Br)c-2oc2c(Br)c(O)c([N+](=O)[O-])cc12 [Eosin B] | 40 mg/mL (≈ 69 mM) |  | 
O=S(=O)([O-])c1ccccc1C=Cc1ccc(-c2ccc(C=Cc3ccccc3S(=O)(=O)[O-])cc2)cc1.[Na+].[Na+] [Tinopal CBS-X] | 25 mg/mL |  | 
